This note sets out measurements from ChEMBL document CHEMBL2384902, “Synthesis and ionophoric activities of functionalized bis(choloyl) conjugates with a rigid core” (Bioorg Med Chem Lett, 2013).

The nature of data set [1]: Ratio of k2 to K for ionophoric activity across egg-yolk L-alpha-phosphatidylcholine-based liposomal membranes (unknown origin).
The nature of data set [2]: Ionophoric activity across egg-yolk L-alpha-phosphatidylcholine-based liposomal membranes (unknown origin) assessed as change in fluorescence intensity at 3 mol % by pyranine dye-based method in presence of chloride ions in internal and sulfate ions in external vesicles. It is filed as physicochemical. Particulars: artificial membrane; call rule not given here.
The nature of data set [3]: Ionophoric activity across egg-yolk L-alpha-phosphatidylcholine-based liposomal membranes (unknown origin) assessed as induction of pH discharge at 0.5 to 3 mol % at internal pH 7 and external aqueous phase pH 8 by pyranine dye-based method. It is filed as physicochemical. Particulars: artificial membrane.
Data set [4] in a line: Ionophoric activity across egg-yolk L-alpha-phosphatidylcholine-based liposomal membranes (unknown origin) assessed as induction of pH discharge at internal pH 7 and external aqueous phase pH 8 by pyranine dye-based method. It is filed as physicochemical. Particulars: artificial membrane.

Consider `C[C@H](CCC(=O)NC(CCCCN)C(=O)Nc1ccc(NC(=O)C(CCCCN)NC(=O)CC[C@@H](C)[C@H]2CC[C@H]3[C@@H]4[C@H](O)C[C@@H]5C[C@H](O)CC[C@]5(C)[C@H]4C[C@H](O)[C@]23C)cc1)[C@H]1CC[C@H]2[C@@H]3[C@H](O)C[C@@H]4C[C@H](O)CC[C@]4(C)[C@H]3C[C@H](O)[C@]12C` (some centres not stated), for which, in data set [1], the Ratio (10'-4/min.mol%'-4) worked out at 5.5. In addition, the Activity result is given as “Not Active” in data set [2] and “Active” in data set [3]. Also, in data set [4], the K is recorded as 1.81 ×10⁻² /min.
In the same order, the values of `C[C@H](CCC(=O)NC(CCCCN)C(=O)NCc1ccc(CNC(=O)C(CCCCN)NC(=O)CC[C@@H](C)[C@H]2CC[C@H]3[C@@H]4[C@H](O)C[C@@H]5C[C@H](O)CC[C@]5(C)[C@H]4C[C@H](O)[C@]23C)cc1)[C@H]1CC[C@H]2[C@@H]3[C@H](O)C[C@@H]4C[C@H](O)CC[C@]4(C)[C@H]3C[C@H](O)[C@]12C` (some centres not stated) are 5.2, “Not Active”, “Active” and 1.81 ×10⁻² /min.
Regarding `C[C@H](CCC(=O)NCc1ccc(CNC(=O)CC[C@@H](C)[C@H]2CC[C@H]3[C@@H]4[C@H](O)C[C@@H]5C[C@H](O)CC[C@]5(C)[C@H]4C[C@H](O)[C@]23C)cc1)[C@H]1CC[C@H]2[C@@H]3[C@H](O)C[C@@H]4C[C@H](O)CC[C@]4(C)[C@H]3C[C@H](O)[C@]12C`, the Ratio (10'-5/min.mol%'-4) in data set [1] stood at 9. For the same compound, in data set [3], the result was Active.
On to `CC(=O)NCCCCC(NC(=O)CC[C@@H](C)[C@H]1CC[C@H]2[C@@H]3[C@H](O)C[C@@H]4C[C@H](O)CC[C@]4(C)[C@H]3C[C@H](O)[C@]12C)C(=O)NCc1ccc(CNC(=O)C(CCCCNC(C)=O)NC(=O)CC[C@@H](C)[C@H]2CC[C@H]3[C@@H]4[C@H](O)C[C@@H]5C[C@H](O)CC[C@]5(C)[C@H]4C[C@H](O)[C@]23C)cc1` (some centres not stated), for which the Activity result is reported as “Not Active” in data set [2] and “Active” in data set [3].
